Activity calls are given as the source filed them. No cut-off for these calls is given here.
Legend:
RAW264.7 [1] = assay: (§1) Cytotoxicity against mouse RAW264.7 cells assessed as survival rate at 20 uM incubated for 24 hrs by MTT assay (reference value: 100 %); assay type: toxicity, cell-based; settings: raw264.7, 24 h, 20 µM
RAW264.7 [2] = assay: Anti-inflammatory activity in LPS-induced mouse RAW264.7 cells assessed as NO emission at 20 uM preincubated with compound for 1 hrs followed by LPS stimulation and measured after 24 hrs by Griess reagent based analysis (reference value: 14.05 +/- 1.19 microM); assay type: functional; settings: time 25 hrs
RAW264.7 [3] = assay: Anti-inflammatory activity in LPS-induced mouse RAW264.7 cells assessed as inhibition of NO release at 20 uM preincubated with compound for 1 hrs followed by LPS stimulation and measured after 24 hrs by Griess reagent based analysis (reference value: 0 %); assay type: functional; settings: for inhibition (INH): time 25 hrs; for inhibition at 20 µM: Mus musculus
[4] = as §1; assay type: toxicity, cell-based; settings: RAW264.7 cells, read-out: Survival
Mus musculus [5] = assay: Anti-inflammatory activity in DSS-induced acute colitis male C57BL/6 mouse model assessed as complete colonic mucosa with crypts at 200 mg/kg, po administered for 7 days by H and E staining based analysis; assay type: functional, organism-based; settings: time 7.0 day
Mus musculus [6] = assay: Anti-inflammatory activity in DSS-induced acute colitis male C57BL/6 mouse model assessed as reduction in infiltration of inflammatory cells in colon at 200 mg/kg, po administered for 7 days by H and E staining based analysis; assay type: functional, organism-based; settings: time 7.0 day
RAW264.7 [7] = assay: Cytotoxicity against mouse RAW264.7 cells assessed as reduction in cell viability up to 160 uM incubated for 24 hrs by MTT assay; assay type: toxicity, cell-based; settings: raw264.7, 24 h
RAW264.7 [8] = assay: Anti-inflammatory activity in LPS-induced mouse RAW264.7 cells assessed as reduction in IL-6 level at >40 uM preincubated with compound for 1 hrs followed by LPS stimulation and measured after 24 hrs by ELISA; assay type: functional, cell-based; settings: time 25.0 hrs
RAW264.7 [9] = assay: Anti-inflammatory activity in LPS-induced mouse RAW264.7 cells assessed as reduction in TNFalpha level at >20 uM preincubated with compound for 1 hrs followed by LPS stimulation and measured after 24 hrs by ELISA; assay type: functional, cell-based; settings: time 25.0 hrs
RAW264.7 [10] = assay: Anti-inflammatory activity in LPS-induced mouse RAW264.7 cells assessed as reduction in IL-6 level preincubated with compound for 1 hrs followed by LPS stimulation and measured after 24 hrs by ELISA; assay type: functional, cell-based; settings: dose 10-160 µM, time 25.0 hrs
RAW264.7 [11] = assay: Anti-inflammatory activity in LPS-induced mouse RAW264.7 cells assessed as reduction in TNFalpha level preincubated with compound for 1 hrs followed by LPS stimulation and measured after 24 hrs by ELISA; assay type: functional, cell-based; settings: dose 10-160 µM, time 25.0 hrs
Mus musculus [12] = assay: Anti-inflammatory activity in DSS-induced acute colitis male C57BL/6 mouse model assessed as increase in intestine length at 20 to 80 mg/kg, po administered for 7 days; assay type: functional, organism-based; settings: dose 20-80 mg/kg, time 7.0 day
Mus musculus [13] = assay: Anti-inflammatory activity in DSS-induced acute colitis male C57BL/6 mouse model assessed as complete colonic mucosa with crypts administered orally for 7 days by H and E staining based analysis; assay type: functional, organism-based; settings: dose 20-80 mg/kg, route po, time 7.0 day
Mus musculus [14] = assay: Anti-inflammatory activity in DSS-induced acute colitis male C57BL/6 mouse model assessed as reduction in infiltration of inflammatory cells in colon administered orally for 7 days by H and E staining based analysis; assay type: functional, organism-based; settings: dose 20-80 mg/kg, route po, time 7.0 day
Mus musculus [15] = assay: Anti-inflammatory activity in DSS-induced acute colitis male C57BL/6 mouse model assessed as decrease in TNF-alpha expression level in colon at 20 to 80 mg/kg, po administered for 7 days by immunohistochemical staining based analysis; assay type: functional, organism-based; settings: dose 20-80 mg/kg, time 7.0 day
Mus musculus [16] = assay: Anti-inflammatory activity in DSS-induced acute colitis male C57BL/6 mouse model assessed as decrease in IL6 expression level in colon at 20 to 80 mg/kg, po administered for 7 days by immunohistochemical staining based analysis; assay type: functional, organism-based; settings: dose 20-80 mg/kg, time 7.0 day
Mus musculus [17] = assay: Anti-inflammatory activity in DSS-induced acute colitis male C57BL/6 mouse model assessed as decrease in IL1beta expression level in colon at 20 to 80 mg/kg, po administered for 7 days by immunohistochemical staining based analysis; assay type: functional, organism-based; settings: dose 20-80 mg/kg, time 7.0 day

Compound	Activity (RAW264.7 [2])	viability at 24 h, 20 µM [4]	inhibition at 20 µM (RAW264.7 [3]; RAW264.7, 25 h)	other results
CN1c2c(ccc3cc4c(cc23)OCO4)-c2ccc3c(c2C1CC(=O)O)OCO3 (centres undefined)	9.55 µM			Survival (RAW264.7 [1]): 93.19%; inhibition (INH) (RAW264.7 [3]): 31.45%
CCC(C)C1c2c(ccc(OC)c2OC)-c2ccc3cc4c(cc3c2N1C)OCO4 (centres undefined)	11.52 µM	91.3%	17%	
CCCCNC(=O)CC1c2c(ccc3c2OCO3)-c2ccc3cc4c(cc3c2N1C)OCO4 (centres undefined)	10.48 µM	101%	24.5%	
CCOC(=O)CC1c2c(ccc3c2OCO3)-c2ccc3cc4c(cc3c2N1C)OCO4 (centres undefined)	10.5 µM	109%	24.5%	
CN1Cc2c(ccc3c2OCO3)-c2ccc3cc4c(cc3c21)OCO4 [DIHYDROSANGUINARINE]	10.36 µM	88.7%		inhibition at 20 µM (RAW264.7 [3]; RAW264.7, time 25 hrs): 26.1%
C=C(CC1c2c(ccc3c2OCO3)-c2ccc3cc4c(cc3c2N1C)OCO4)C(=O)OC (centres undefined)	12.66 µM	111%	9.4%	
Nc1ccc(O)c(C(=O)O)c1				Activity (Mus musculus [5]): Active; Activity (Mus musculus [6]): Active
COC(=O)CCC1c2c(ccc3c2OCO3)-c2ccc3cc4c(cc3c2N1C)OCO4 (centres undefined)	10.94 µM	110%	21.4%	
COc1ccc2c(c1OC)CN(C)c1c-2ccc2cc3c(cc12)OCO3 [DIHYDROCHELERYTHRINE]	9.91 µM	94.3%	28.9%	
CCC(C)C1c2c(ccc3c2OCO3)-c2ccc3cc4c(cc3c2N1C)OCO4 (centres undefined)	13.15 µM	114%	5.57%	
COc1ccc2c(c1OC)C(CCO)N(C)c1c-2ccc2cc3c(cc12)OCO3 (centres undefined)	9.75 µM	103%	30.1%	
CCOC(=O)CC1c2c(ccc(OC)c2OC)-c2ccc3cc4c(cc3c2N1C)OCO4 (centres undefined)	9.56 µM	94.4%	31.3%	
COc1ccc2c(c1OC)C(CC(=O)Nc1ccccc1)N(C)c1c-2ccc2cc3c(cc12)OCO3 (centres undefined)	8.16 µM	136%	41.6%	Activity (RAW264.7 [7]): Non-toxic; Activity (RAW264.7 [8]): Active; Activity (RAW264.7 [9]): Active; Activity (RAW264.7 [10]): Dose-dependent-effect; Activity (RAW264.7 [11]): Dose-dependent-effect; Activity (Mus musculus [12]): Active; Activity (Mus musculus [13]): Dose-dependent-effect; Activity (Mus musculus [14]): Dose-dependent-effect; Activity (Mus musculus [15]): Active; Activity (Mus musculus [16]): Active; Activity (Mus musculus [17]): Active
COc1ccc2c(c1OC)C(CC(=O)O)N(C)c1c-2ccc2cc3c(cc12)OCO3 (centres undefined)	9.1 µM			Survival (RAW264.7 [1]): 82.98%; inhibition (INH) (RAW264.7 [3]): 34.87%
CN1c2c(ccc3cc4c(cc23)OCO4)-c2ccc3c(c2C1CC(=O)[O-])OCO3.[Na+] (centres undefined)	11.66 µM	91.8%	16.1%	
CCCOC(=O)C(C)C1c2c(ccc(OC)c2OC)-c2ccc3cc4c(cc3c2N1C)OCO4 (centres undefined)	12.5 µM	122%	10.3%	
C=C(CC1c2c(ccc(OC)c2OC)-c2ccc3cc4c(cc3c2N1C)OCO4)C(=O)OC (centres undefined)	10.14 µM	130%	27.2%	
CCCCNC(=O)CC1c2c(ccc(OC)c2OC)-c2ccc3cc4c(cc3c2N1C)OCO4 (centres undefined)	8.22 µM	92.1%	41.1%	
COC(=O)CCC1c2c(ccc(OC)c2OC)-c2ccc3cc4c(cc3c2N1C)OCO4 (centres undefined)	10.11 µM	97.7%	27.5%	
COc1ccc2c(c1OC)C(CC(=O)[O-])N(C)c1c-2ccc2cc3c(cc12)OCO3.[Na+] (centres undefined)	12.98 µM	98.8%		inhibition (INH) (RAW264.7 [3]): 6.77%
CN1c2c(ccc3cc4c(cc23)OCO4)-c2ccc3c(c2C1CCO)OCO3 (centres undefined)	11.57 µM	160%	10.1%	
CN1c2c(ccc3cc4c(cc23)OCO4)-c2ccc3c(c2C1CC(=O)Nc1ccccc1)OCO3 (centres undefined)	9.28 µM	125%	33.1%	
COC(=O)C(C)C1c2c(ccc(OC)c2OC)-c2ccc3cc4c(cc3c2N1C)OCO4 (centres undefined)	11.2 µM	101%	19%	

From ChEMBL document CHEMBL6109106, “Rational design, synthesis and anti-inflammatory activity of 6-substituted dihydrobenzophenanthridine derivatives” (Bioorg Med Chem, 2025)
